Measured values taken from patent US20240139211A1, “METHODS AND COMPOSITIONS FOR TREATING AMYOTROPHIC LATERAL SCLEROSIS” (Amylyx Pharmaceuticals, Inc., priority 2022, published 2024).
Where two headings read alike, the source gives them in different places.

Tests used:
[1] = tested on: human hepatocytes; settings: 72 h, 100 μM
Protocol: Plateable and inducible cryopreserved human hepatocytes were thawed and isolated in human hepatocyte thawing medium. […] After attachment (4 hours), the medium was changed to fresh hepatocyte culture medium for overnight cell recovery. […] A positive control (100 μM chlorpromazine) was treated in parallel.

[2] = biological target: T1, CYP2C9 (Homo sapiens, UniProt P11712); settings: 4 μM, pH 7.4
T1 sequence (P11712 whole entry): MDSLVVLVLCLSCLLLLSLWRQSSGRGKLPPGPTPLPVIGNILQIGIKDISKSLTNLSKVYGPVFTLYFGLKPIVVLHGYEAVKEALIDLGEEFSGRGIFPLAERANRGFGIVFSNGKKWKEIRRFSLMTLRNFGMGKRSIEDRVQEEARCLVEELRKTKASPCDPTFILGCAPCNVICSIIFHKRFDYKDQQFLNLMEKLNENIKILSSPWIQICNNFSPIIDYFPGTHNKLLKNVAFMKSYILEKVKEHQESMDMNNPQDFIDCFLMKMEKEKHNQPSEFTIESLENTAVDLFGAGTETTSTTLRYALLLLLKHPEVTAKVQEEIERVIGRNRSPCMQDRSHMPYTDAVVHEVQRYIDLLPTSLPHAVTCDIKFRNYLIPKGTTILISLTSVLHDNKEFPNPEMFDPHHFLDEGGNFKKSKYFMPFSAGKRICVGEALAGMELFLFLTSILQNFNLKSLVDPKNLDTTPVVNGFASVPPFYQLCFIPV

[3] = biological target: hrCYP2C9 (Homo sapiens, UniProt P11712); settings: 20 min, 6 μM, pH 7.4
Chain of hrCYP2C9 (P11712 whole entry): as above

[4] = biological target: hrCYP3A4 (Homo sapiens, UniProt P08684); assay: Formation of CYP probe metabolite by hrCYP3A4; type: in vitro ADME; settings: hrCYP3A4 vs Negative Control, QC criterion ≥2
Chain of hrCYP3A4 (P08684 whole entry): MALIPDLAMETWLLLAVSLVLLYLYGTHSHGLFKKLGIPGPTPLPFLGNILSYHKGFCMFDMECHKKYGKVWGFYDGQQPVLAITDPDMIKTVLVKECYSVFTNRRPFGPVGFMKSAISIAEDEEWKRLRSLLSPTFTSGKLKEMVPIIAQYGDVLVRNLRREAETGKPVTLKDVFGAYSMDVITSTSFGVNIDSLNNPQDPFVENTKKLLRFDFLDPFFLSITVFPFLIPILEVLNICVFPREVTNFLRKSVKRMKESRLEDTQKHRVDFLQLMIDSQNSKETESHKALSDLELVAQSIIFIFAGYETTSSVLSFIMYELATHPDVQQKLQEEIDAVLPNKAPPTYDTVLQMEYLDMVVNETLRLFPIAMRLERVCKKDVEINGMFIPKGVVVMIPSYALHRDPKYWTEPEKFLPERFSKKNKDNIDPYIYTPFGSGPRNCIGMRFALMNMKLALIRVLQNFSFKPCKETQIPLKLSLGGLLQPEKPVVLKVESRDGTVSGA

[5] = biological target: T1, CYP2C9; assay: Inhibition of CYP2C9 in human liver microsomes; settings: pH 7.4
[6] = biological target: T2, CYP2B6 (Homo sapiens, UniProt P20813); assay: in vitro; settings: microsomes, pH 7.4
T2 sequence (P20813 1-491): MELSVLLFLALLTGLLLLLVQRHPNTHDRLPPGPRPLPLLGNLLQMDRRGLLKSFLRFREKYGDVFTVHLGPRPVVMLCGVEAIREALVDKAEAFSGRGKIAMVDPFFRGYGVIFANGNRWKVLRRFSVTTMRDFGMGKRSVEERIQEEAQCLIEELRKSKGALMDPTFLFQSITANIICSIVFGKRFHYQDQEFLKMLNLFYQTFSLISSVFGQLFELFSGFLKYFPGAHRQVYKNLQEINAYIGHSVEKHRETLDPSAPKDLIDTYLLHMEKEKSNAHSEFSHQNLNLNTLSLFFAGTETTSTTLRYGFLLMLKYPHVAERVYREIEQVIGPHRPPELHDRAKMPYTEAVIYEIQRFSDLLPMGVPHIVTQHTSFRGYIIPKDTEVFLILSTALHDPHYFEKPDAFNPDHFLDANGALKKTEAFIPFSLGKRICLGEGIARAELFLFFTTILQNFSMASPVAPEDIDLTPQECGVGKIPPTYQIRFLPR

CN(C)CCCN1c2ccccc2Sc2ccc(Cl)cc21 [Chlorpromazine, chlorpromazine]
% MTS absorbance relative to vehicle control [1]: 24.3%
Formazan absorbance, mean [1]: 0.160

O=C(O)Cc1ccccc1Nc1c(Cl)cccc1Cl [Diclofenac]
Formation Rate Ratio [2]: 7.7
Formation Rate [3]: 0 pmol metabolite/min/mg Supersome protein
Measured Metabolite [3]: 0 µM
Formation Rate ([3]; human): 845 pmol metabolite/min/mg Supersome protein
Measured Metabolite ([3]; human): 1.56 µM

Cc1ncc2n1-c1ccc(Cl)cc1C(c1ccccc1F)=NC2 [Midazolam]
Formation Rate Ratio ([4]; Midazolam (2 μM)): >>2

Nc1ccc(S(=O)(=O)Nc2ccnn2-c2ccccc2)cc1 [Sulfaphenazole]
activity at 3.33 µM [5]: 23.8%
activity at 10 µM [5]: 14.9%

C[C@]12CC[C@H]3[C@@H](CCC4=CC(=O)CC[C@@]43C)[C@@H]1CC[C@@H]2O [Testosterone]
Formation Rate Ratio ([4]; Testosterone (50 μM)): >>2

S=P(N1CC1)(N1CC1)N1CC1 [Thio-TEPA]
activity at 3.33 µM [6]: 66.9%
activity at 10 µM [6]: 44.1%
activity at 30 µM [6]: 26.7%
